# Measured values: PubChem BioAssay AID467 (The Scripps Research Institute Molecular Screening Center, 2006)
# Active and inactive are the calls of the source. How the calls were made is not given here.
# System: parental cell line counter screen, S1P1 agonist assay readout
# Experiment: signal in parental cells, counter-screen for S1P1 agonist project (AID 467);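 further: agonist potency measured against forskolin stimulation plus an EC20 level of SEW2871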
row,Structure (SMILES),EC50
1,CCOC(=O)c1cnc(-n2nc(C)cc2C)nc1NC1CCCCC1,5.93 µM
2,O=S(=O)(CCSc1ccccn1)c1nc2ccccc2s1,4.71 µM
3,C=CS(=O)(=O)c1ccc(Oc2ccc(S(=O)(=O)C=C)cc2)cc1,1.06 µM
4,Oc1ccc(C2NCc3ccccc3-n3cccc32)cc1Cl (configuration not stated),> 30 µM (inactive)
5,CC1CCCC(C)N1C(=O)CN1CCN(c2nc(-c3ccc(F)cc3)cs2)CC1 (configuration not stated),21.7 µM (inactive)
6,CCOC(=O)c1oc2ccc(S(=O)(=O)n3nc(-c4ccc(OC)cc4)cc3N)cc2c1C,> 95.1 µM (inactive)
7,c1ccc(N2CCN(c3ncnc4c3oc3ccccc34)CC2)cc1,> 95.1 µM (inactive)
8,Cc1nc2sc(-c3ccccc3)cc2c(=O)n1-n1cccc1,> 95.1 µM (inactive)
9,CCc1ccc2oc(-c3cc(N)cc(C)c3O)nc2c1,> 95.1 µM (inactive)
10,CCCOC(=O)c1ccc(OCC(O)Cn2c(C)nc3ccccc32)cc1 (configuration not stated),> 95.1 µM (inactive)
11,COC(=O)CC1SC(=O)NC1=Nc1ccccc1 (configuration not stated),> 95.1 µM (inactive)
12,COc1cc(CSc2nnnn2-c2ccc(C)cc2)cc(OC)c1OC,> 30 µM (inactive)
13,CCCS(=O)(=O)c1nnnn1-c1cccc(OC)c1,0.988 µM
14,COc1cccc(-c2csc(N3CCN(CC(=O)Nc4ccc5c(c4)OCO5)CC3)n2)c1,> 30 µM (inactive)
15,Cc1cccc(-c2nc(C#N)c(NC3CCCCC3)o2)c1,> 95.1 µM (inactive)
16,O=C(Nc1ccc(OC(F)F)c(Cl)c1)Nc1ccc2c(c1)OCO2,> 10 µM (inactive)
17,O=C(Nc1nc(-c2nc3ccccc3s2)cs1)c1ccc(S(=O)(=O)N2CCOCC2)cc1,27.5 µM (inactive)
18,CCOc1ccc(Cc2nc(-c3nonc3N)no2)cc1OCC,> 95.1 µM (inactive)
19,CCn1nc(-c2cccs2)nc2c(=O)n(C)c(=O)nc1-2,12.3 µM (inactive)
20,Cc1cc(C(=O)CSc2nnc(-c3ccccc3)n2-c2ccccc2)c(C)n1-c1ncn[nH]1,> 95.1 µM (inactive)
21,CCOc1ccc(-c2noc(-c3ccncc3)n2)cc1OCC,> 95.1 µM (inactive)
22,COc1ccc(-n2c(C)cc(C(=O)CSc3nnc(-c4cccs4)o3)c2C)cc1,32.3 µM (inactive)
23,CCc1ccc(S(=O)(=O)NCCc2csc(-c3ccccc3)n2)s1,33.4 µM (inactive)
24,Cn1cccc1C(=O)OCc1cc(Cl)cc2c1OCOC2,> 30 µM (inactive)
25,Cn1c(-c2c(N)n(C3CCCC3)c3nc4ccccc4nc23)nc2ccccc21,1.96 µM
26,Clc1ccc(-n2nnnc2Sc2ncnc3sccc23)cc1,2.87 µM

row,Structure (SMILES),EC50
1,Cc1nn(-c2nc3ccccc3s2)c(N)c1-c1ccccc1,> 95.1 µM (inactive)
2,COc1cccc(-c2cc(C(=O)Nc3ccccc3SC)no2)c1,> 95.1 µM (inactive)
3,COc1ccc(CCNc2c(C)c(C)nc3ncnn23)cc1,43.4 µM (inactive)
4,CC(=O)N1CCCc2cc(S(=O)(=O)NCCC3=CCCCC3)ccc21,> 95.1 µM (inactive)
5,Cc1cc(C(=O)N2CCN(C(c3ccccc3)c3ccccc3)CC2)on1,> 95.1 µM (inactive)
6,CCCCOC(=O)c1[nH]c2c(c1C)C(=O)CC(c1cc(OC)c(OC)c(OC)c1)C2 (configuration not stated),12.1 µM (inactive)
7,Clc1ccc(-c2nc3nc4ccccc4nc3n2Cc2ccco2)cc1,> 95.1 µM (inactive)
8,Cc1ccccc1OCCCCc1c(C)n[nH]c1C,> 30 µM (inactive)
9,CCOC(=O)Nc1ccc2c(c1)N(C(=O)CCN(C)C)c1ccccc1S2,> 10 µM (inactive)
10,CC(C)c1ccc2oc(-c3cc(N)ccc3O)nc2c1,> 30 µM (inactive)
11,O=S1(=O)C=C(Sc2nc3ccccc3s2)c2ccccc21,1.26 µM
12,CCCC(=O)c1ccc(N2CCN(C(=O)c3ccccc3Br)CC2)c(F)c1,28.2 µM (inactive)
13,COCCn1c(C)cc(C(=O)CSc2nnc(-c3cccnc3)n2-c2ccccc2F)c1C,> 95.1 µM (inactive)
14,COC(=O)c1ccc(OCC(O)Cn2nnc3ccccc32)cc1 (configuration not stated),> 95.1 µM (inactive)
15,CCC(C)c1ccc2oc(-c3ccc(NC(=O)Cn4cnc5c(=O)n(C)c(=O)n(C)c54)cc3)nc2c1 (configuration not stated),> 95.1 µM (inactive)
16,CCNc1nc2c(c(=O)n(C)c(=O)n2C)n1Cc1ccc(Cl)cc1,> 95.1 µM (inactive)
17,COc1ccccc1OCc1nc(C#N)c(N2CC(C)CC(C)C2)o1 (configuration not stated),> 95.1 µM (inactive)
18,CCCC(=O)Nc1ccc(-c2nc3cc(C)c(C)cc3o2)cc1,> 95.1 µM (inactive)
19,CCCC(=O)Nc1ccc2oc(-c3ccc(OC)c(Br)c3)nc2c1,> 95.1 µM (inactive)
20,Cc1nn(Cc2ccc(Cl)c(Cl)c2)c(C)c1NC(=O)c1cc(CC(C)C)on1,23.8 µM (inactive)
21,CCOc1ccccc1OCCCCCc1c(C)n[nH]c1C,> 30 µM (inactive)
22,Cn1c(C(=O)N2CCc3ccccc3C2)cc2oc3ccccc3c21,66.4 µM (inactive)
23,Cc1ccc(-c2nnc(SCc3ccccc3F)o2)cc1,> 95.1 µM (inactive)
24,CCCC(=O)Nc1ccc(-c2nc3cc(C)ccc3o2)cc1,> 95.1 µM (inactive)
25,Cc1nnc(SC(=O)N2c3ccccc3Sc3ccccc32)s1,3.42 µM
26,Cc1cccc(N2CCN(C(=O)CSCc3c(C)noc3C)CC2)c1C,> 30 µM (inactive)

row,Structure (SMILES),EC50
1,O=C(c1cc(-c2ccccc2)on1)N1CCN(Cc2ccc3c(c2)OCO3)CC1,> 30 µM (inactive)
2,CCOc1ccc(-c2nc(-c3ccccc3C)no2)cc1,> 95.1 µM (inactive)
3,Cn1c(C(=O)N2CCCc3ccccc32)cc2sccc21,> 95.1 µM (inactive)
4,COc1cccc(-c2nc(-c3ccc(NC(=O)c4cccnc4)cc3)no2)c1,> 95.1 µM (inactive)
5,CCCc1ccc(OCc2nc(-c3ccc(NC(=O)c4ccco4)cc3)no2)cc1,> 95.1 µM (inactive)
6,O=C(Nc1ncc(Br)s1)C(Cc1ccccc1)n1cccc1 (configuration not stated),> 10 µM (inactive)
7,CCSc1nc(N2CCOCC2)c2c(c1C#N)CCCC2,> 95.1 µM (inactive)
8,Cc1ccc2c(c1)[nH]c1c(N3CCN(Cc4ccccc4)CC3)ncnc12,7.72 µM
9,CCOc1nc(-c2ccccc2)ccc1-c1noc(-c2ccco2)n1,> 95.1 µM (inactive)
10,CN(Cc1cccs1)c1ncnc2sccc12,> 30 µM (inactive)
11,CC(Oc1ccccc1Br)C(=O)N1CCc2ccccc21 (configuration not stated),> 95.1 µM (inactive)
12,Oc1ccc(-c2nnc(SCC3CCCCC3)o2)cc1,> 10 µM (inactive)
13,CN=C(NC#N)SCC(=O)c1ccc(Cl)cc1Cl,> 30 µM (inactive)
14,COC(=O)c1c(C)n(-c2ccc(OC)cc2)c2ccc(O)cc12,20.1 µM (inactive)
15,Cc1ccc2[nH]c3c(NCc4ccco4)ncnc3c2c1,30.9 µM (inactive)
16,CCN(CC)C(=O)CSC(=Nc1ccccc1F)NC#N,> 95.1 µM (inactive)
17,COc1ccccc1OCCCCCc1c(C)n[nH]c1C,57.2 µM (inactive)
18,Cn1c(=O)oc2cc(S(=O)(=O)N3CCCC(C(=O)N4CC=C(c5ccccc5)CC4)C3)ccc21 (configuration not stated),44.5 µM (inactive)
19,O=C(C1CCN(S(=O)(=O)c2cccc3cccnc23)CC1)N1CCN(c2ccc(Cl)cc2)CC1,38.3 µM (inactive)
20,CCC(C)OC(=O)c1[nH]c2c(c1C)C(=O)CC(c1ccc(N(C)C)cc1)C2 (configuration not stated),> 30 µM (inactive)
21,Cc1ccccc1-n1c(SCC(=O)c2cc(C)n(C)c2C)nnc1-c1ccncc1,> 95.1 µM (inactive)
22,CCC(=NCCOc1ccc(Cl)cc1)c1c(O)n(C)c(=O)n(C)c1=O,18.9 µM (inactive)
23,COc1ccccc1-n1nnnc1SCc1cc2c(cc1Br)OCO2,> 95.1 µM (inactive)
24,O=C(Nc1ccc(C(F)(F)F)cc1)C1CCCN1S(=O)(=O)c1cccc2cccnc12 (configuration not stated),> 30 µM (inactive)
25,N/C(=N\c1nc2c(c(=O)[nH]1)CCCC2)Nc1ccccc1,> 95.1 µM (inactive)
26,COC(=O)c1sc(NC(=O)c2ccc(OC)cc2OC)nc1C,> 95.1 µM (inactive)

row,Structure (SMILES),EC50
1,C=CCOC(=O)c1[nH]c2c(c1C)C(=O)CC(c1cc(OC)c(OC)c(OC)c1)C2 (configuration not stated),> 95.1 µM (inactive)
2,CCN(CC)S(=O)(=O)c1cccc(S(=O)(=O)c2cccc(S(=O)(=O)N(CC)CC)c2)c1,> 95.1 µM (inactive)
3,COc1ccc(/C(O)=C2/C(=O)C(=O)N(CC3CCCO3)C2c2cccc(OC)c2)cc1 (configuration not stated),> 95.1 µM (inactive)
4,c1ccc(C(Cc2nc(-c3cccnc3)no2)c2ccccc2)cc1,> 95.1 µM (inactive)
5,CCCc1cc2c(=O)c(-c3ccccn3)coc2cc1OC,> 95.1 µM (inactive)
6,Cc1onc(-c2ccccc2Cl)c1C(=O)Oc1cc(N)n(S(=O)(=O)c2ccc(F)cc2)n1,9.2 µM
7,CC1=C(C(=O)OCc2ccc3c(c2)OCO3)C(c2ccc(F)cc2)NC(=O)N1 (configuration not stated),2.3 µM
8,O=c1oc2cc(Br)ccc2n1CSC1=NCCS1,> 10 µM (inactive)
9,CC(C)Cn1c(=O)c(C(=O)Nc2ccccc2S(N)(=O)=O)c(O)c2ccccc21,16.3 µM (inactive)
10,CCCCOc1ccc(S(=O)(=O)Nc2cccnc2)cc1,> 95.1 µM (inactive)
11,C=C(C)COc1ccc(-c2nc(N)nc(C)c2Oc2ccccc2OC)c(O)c1,> 10 µM (inactive)
12,c1ccc2c(c1)oc1c(NCc3ccc4c(c3)OCO4)ncnc12,38.9 µM (inactive)
13,CCc1ccc2c(COC(=O)c3n[nH]c4ccccc34)cc(=O)oc2c1,> 95.1 µM (inactive)
14,CCC(C)c1ccc2oc(-c3ccc(NC(=O)c4ncn[nH]4)cc3)nc2c1 (configuration not stated),> 95.1 µM (inactive)
15,Cc1ccc(-n2c(C)cc(C(=O)COC(=O)c3c(C)noc3C)c2C)cc1,37.6 µM (inactive)
16,Cc1nc(NC(C)c2ccccc2)c2oc3ccccc3c2n1 (configuration not stated),52.9 µM (inactive)
17,Cc1ccc2oc(-c3ccc(NC(=O)c4cccnc4)cc3)nc2c1,> 95.1 µM (inactive)
18,Cc1ccc(C(C)C)c(OCc2nc(-c3nonc3N)no2)c1,> 30 µM (inactive)
19,COc1ccc(-c2nc(-c3ccccc3OC)no2)cc1OC,> 95.1 µM (inactive)
20,CCCc1cc(C(=O)Nc2sc3c(c2C#N)CCC3)no1,> 95.1 µM (inactive)
21,O=C(Nc1ccc(N2CCOCC2)c(Cl)c1)c1cccc(F)c1,> 95.1 µM (inactive)
22,Oc1ccc(-c2nc(-c3ccc(O)c(O)c3)cs2)cc1,6.35 µM
23,Cc1cc(N2CCOCC2)nc(NCc2ccccc2)n1,71.3 µM (inactive)
24,CCCN(C(=O)c1cccs1)c1nnc(-c2ccncc2)s1,> 95.1 µM (inactive)
